What was measured:
[1] = Blood glucose and body weight in diabetic mice; format: in vivo; conditions: 50 mg/kg/day intraperitoneal for 4 weeks
Procedure: To investigate the preventive therapeutic effects of direct injection of belinostat on diabetic nerves, streptozotocin (STZ)-induced diabetic mice were randomly assigned to solvent-treated (DM) as vehicle controls or HDAC inhibitor-treated (DM+HDACi) groups. […] Belinostat was resuspended in 45% (2-hydroypropyl)-beta-cyclodextrin (HP-β-CD) and injected into mice via the intraperitoneal route at 50 mg/kg/day for 4 weeks.

[2] = test system: streptozotocin (STZ)-induced diabetic mice; experiment: Sensory and motor nerve conduction velocities in diabetic neuropathy model; format: in vivo
Procedure: To investigate the preventive therapeutic effects of direct injection of belinostat on diabetic nerves, streptozotocin (STZ)-induced diabetic mice were randomly assigned to solvent-treated (DM) as vehicle controls or HDAC inhibitor-treated (DM+HDACi) groups. […] After intraperitoneal injection of belinostat or an equal volume of solvent vehicle (HP-β-CD), both sensory and motor nerve conduction velocities (NCVs) were measured for 18 weeks at every week (n=11-14, each group) from 0 week after treatment. Non-diabetic mice, which received solvent vehicle (HP-j-CD), were used as controls (NDM).

[3] = test system: streptozotocin (STZ)-induced diabetic mice; experiment: Tactile allodynia (von Frey hair testing); format: in vivo
Procedure: To investigate the preventive therapeutic effects of direct injection of belinostat on diabetic nerves, streptozotocin (STZ)-induced diabetic mice were randomly assigned to solvent-treated (DM) as vehicle controls or HDAC inhibitor-treated (DM+HDACi) groups. […] To investigate preventive effects of belinostat in diabetic neuropathy, tactile response threshold, thermal withdrawal latency, and rotarod performance were tested. For assay of tactile allodynia, mice were transferred to a glass cage with a wire mesh floor allowing access to the plantar surface of the hind paws. Behavioral accommodation was allowed for approximately 15 min until cage exploration and major grooming activities ceased.

[4] = test system: streptozotocin (STZ)-induced diabetic mice; experiment: Paw thermal withdrawal latency; format: in vivo
Procedure: To investigate the preventive therapeutic effects of direct injection of belinostat on diabetic nerves, streptozotocin (STZ)-induced diabetic mice were randomly assigned to solvent-treated (DM) as vehicle controls or HDAC inhibitor-treated (DM+HDACi) groups. […] For measurement of paw thermal withdrawal latency, mice were placed in an observation chamber on top of the thermal testing apparatus and allowed to acclimate to the warmed glass surface (30° C.) and surroundings for 15 min. The mobile heat source was maneuvered to below the center of the right hind paw and turned on, a process that activates a timer and locally warms the glass surface at a rate of approximately 1° C./s. When the mouse withdrew the paw, movement sensors stopped the timer and turned off the heat source. Right hind paw was measured three times and the mean of three measurements used as a composite source for each mouse. The response latency was converted to the response temperature using a time: floor temperature calibration curve that was constructed each day to allow for day-to-day variations in the surface heating rate.

[5] = test system: streptozotocin (STZ)-induced diabetic mice; experiment: Rotarod performance test; format: in vivo
Procedure: To investigate the preventive therapeutic effects of direct injection of belinostat on diabetic nerves, streptozotocin (STZ)-induced diabetic mice were randomly assigned to solvent-treated (DM) as vehicle controls or HDAC inhibitor-treated (DM+HDACi) groups. […] For rotarod performance test, mice were placed on a rotarod apparatus to assess motor coordination and physical condition. Before the training session, each mouse was habituated to stay on the spindle with slow constant speed for 5 min. Mice were trained for 5 min at 45 rpm before measurement. The horizontal rod rotating by 45 rpm and the maximal length of observation time for each trial was 5 min.

[6] = test system: streptozotocin (STZ)-induced diabetic mice; experiment: Vascularization of sciatic nerves (FITC-conjugated BSL1); format: in vivo; conditions: DM+HDACi, 18 weeks after treatment
[7] = test system: streptozotocin (STZ)-induced diabetic mice; experiment: Intraepidermal nerve fiber density (PGP9.5 staining) in hind paw plantar skin; format: in vivo; conditions: DM+HDACi group
Excerpt: To investigate the preventive therapeutic effects of direct injection of belinostat on diabetic nerves, streptozotocin (STZ)-induced diabetic mice were randomly assigned to solvent-treated (DM) as vehicle controls or HDAC inhibitor-treated (DM+HDACi) groups. […] To evaluate the protective effect of belinostat on diabetic intraepidermal nerve fiber, we stained IENF in hind paw plantar skin with pan-neuronal marker PGP9.5 and counted the number of fibers throughout the epidermis relative to length of tissue.

[8] = test system: streptozotocin (STZ)-induced diabetic mice; experiment: Light and electron microscopy of sciatic nerve myelinated fibers; format: in vivo; conditions: DM+HDACi
Excerpt: To investigate the preventive therapeutic effects of direct injection of belinostat on diabetic nerves, streptozotocin (STZ)-induced diabetic mice were randomly assigned to solvent-treated (DM) as vehicle controls or HDAC inhibitor-treated (DM+HDACi) groups. […] It was examined whether belinostat could affect the ultrastructure of diabetic nerves, which is characterized by morphological alterations in the myelin sheath, a hallmark of DN. Accordingly, light microscopy and transmission electron microscopy were performed on sciatic nerves obtained at 18 weeks after STZ injection. The alternation of myelination pattern was categorized into four groups: decompaction, infolding, focal lysis, and splitting. […] Axonal atrophy is associated with slowing of nerve conduction but is difficult to distinguish from loss of large diameter axons. A reduced index of circularity and an increased g-ratio supports the axonal atrophy. […] A loss of large diameter axons in the peripheral nerve system is the most frequent consequence of metabolic diseases such as diabetes.

[9] = test system: HUVECs, Schwann cells (S16), and DRG neurons (ND7/23); experiment: Quantitative RT-PCR of gene expression in cells cultured in diabetic (high glucose) condition; conditions: in vitro experimental data using cells
Procedure: To determine effects of different types of HDAC inhibitors on different target cells, cells were cultured in diabetic condition (450 mg/dl glucose, 7 days) and were treated HDAC inhibitors for 7 days.

[10] = leading to increases in H3/H4 acetylation in brain tissue; cited from earlier work
Diabetic EPCs (D-EPCs) = experiment: DNA methylation (MSRE-PCR) and gene expression of angiogenic genes in D-EPCs; format: cell-based, rat
Excerpt: Rescue of epigenetic silencing of angiogenic genes in D-EPCs Diabetic EPCs (D-EPCs) have high methylation in the promoter regions of key angiogenic and neurotrophic genes and small molecular epigenetic regulators can reverse these changes, increase gene expression and improve cellular functions. To prepare D-EPCs streptozotocin (STZ) was used to induce diabetic conditions. Differential expression of angiogenic genes was investigated between normal EPCs (N-EPCs) and D-EPCs using an Angiogenesis Microarray kit. The expression of many angiogenic genes was suppressed in D-EPCs. In this disclosure, histone deacetylase (HDAC) inhibitors, i.e., Vorinostat (Zolinza, SAHA), Belinostat (Beleodaq, PXD-101), and Quisinostat (JNJ-26481585), were used. The preliminary experiments were performed using rat EPCs as well as human and rat MSCs. To test the reversible changes of gene expression and epigenetic modifications in D-EPCs by small molecule epigenetic regulators, epigenetic profiling studies were performed using methylation-sensitive restriction enzyme (MSRE)-PCR assays. An HDAC inhibitor, valproic acid (VPA), was used as the epigenetic regulator.

[11] = sciatic nerve 18 weeks after STZ, n=406
[12] = sciatic nerve, P<0.001 versus DM

Compound: O=C(/C=C/c1cccc(S(=O)(=O)Nc2ccccc2)c1)NO [Belinostat, (E)-N-hydroxy-3-[3-(phenylsulfamoyl)phenyl]prop-2-enamide]
- blood glucose levels and animal body weight compared to DM group [1]: did not significantly alter
- sensory NCV ([2]; DM+HDACi group, over 15 weeks, 50 mg/kg/day i.p. for 4 weeks, P<0.001 versus DM): 34.76±0.61 m/s
- motor NCV ([2]; DM+HDACi group, over 15 weeks, 50 mg/kg/day i.p. for 4 weeks, P<0.05 versus DM): 51.15±2.60 m/s
- nerve conduction velocities (NCVs), effect in words ([2]; FIG. 1A, direct injection, diabetic mice): improved
- motor NCVs, effect in words ([2]; FIG. 1B, diabetic mice over 15 weeks): significantly improved
- paw withdrawal threshold (von Frey) ([3]; DM+HDACi group at 3 weeks of diabetes): 0.15 ± 0.09 g
- paw withdrawal threshold (von Frey) ([3]; DM+HDACi group at 14 weeks after HDAC inhibitor injection, P<0.001 versus DM): 1.33 ± 0.30 g
- paw withdrawal thresholds, effect in words ([3]; FIG. 2A, 14 weeks after belinostat injection): recovered to nondiabetic group
- paw withdrawal temperature ([4]; DM+HDACi group at 12 weeks of diabetes, P<0.001 versus DM): 34.30±0.24 °C
- thermal withdrawal latency, effect in words ([4]; FIG. 2B, HDAC treated group): maintained
- rotarod fall latency ([5]; DM+HDACi group, 45 rpm, max 5 min): 254.77 ± 25.23 s
- rotarod performance, DM versus DM+HDACi ([5]; FIG. 2C): no significant difference
- vascularity in sciatic nerves [6]: increased vascularity
- number of intraepidermal nerve fibers (IENF) [7]: 30.61±1.83 IENF/mm
- g-ratio of myelinated sciatic nerve [8]: 0.65±0.0044
- reduction of axonal circularity compared to NDM ([8]; sciatic nerve): 10.3%
- altered myelination pattern: decompaction [8, 11]: 6.35%
- altered myelination pattern: focal lysis [8, 11]: 7.22%
- altered myelination pattern: infolding [8, 11]: 1.49%
- altered myelination pattern: splitting [8, 11]: 0%
- axon diameter of myelinated axons [8, 12]: 4.17 ± 0.1 µm
- index of circularity of axon [8, 12]: 0.70
- upregulation of gene expression in vitro, compared to vorinostat and quisinostat [9]: superior properties

Compound: O=C(CCCCCCC(=O)Nc1ccccc1)NO [SAHA, suberoylanilide hydroxamic acid]
- blood-brain-barrier (BBB) crossing [10]: can cross the blood-brain-barrier

Compound: CCCC(CCC)C(=O)O [VPA, valproic acid]
- angiogenic gene expression (Diabetic EPCs (D-EPCs)): enhanced gene expression
- DNA methylation at promoters of angiogenic genes (Diabetic EPCs (D-EPCs); MSRE-PCR): reduced DNA methylation
